According to US20080093247A1, “PACKAGING MATERIALS FOR FORMULATIONS CONTAINING 2-PYRROLIDONE DERIVATIVES” (Alcon Manufacturing Ltd., priority 2006, published 2008):
Several values for one entry are separate records, joined by “and”; a condition that tells them apart may be missing. Identical values can stand only once. Blank lines part the entries; values can stand above or below the molecule they belong to.

What was measured:
[1] = Retention of N-dodecyl-2-pyrrolidone (DDP) in formulations stored in various packaging materials, HPLC; assay type: physicochemical
Experimental: A material substantially lacking absorptive and adsorptive properties for a 5-(R1)-N-(R2)-2-pyrrolidone. A material substantially lacking absorptive and adsorptive properties for a 5-(R1)-N-(R2)-2-pyrrolidone is determined by packaging a 5-(R1)-N-(R2)-2-pyrrolidone-containing formulation in a bottle made from a test material, removing samples from the formulation at different storage times, and testing for the presence of the 2-pyrrolidone derivative. For example, presence of N-dodecyl-2-pyrrolidone (DDP) within a test sample is determined quantitatively using HPLC analysis as described in the examples provided infra.
The serotonergic formulation set forth in Table 1 was compounded in a glass bottle using techniques known to those skilled in the art. The formulation was tested for starting DDP concentration and then a volume was filled into different types of packaging materials as set forth in Table 2. The filled packages were then stored at the conditions indicated in Table 2, either room temperature or constant temperature ovens at 40° C. and 60° C. The thermal exposure testing was used to simulate the ability of container material to retain and deliver DDP in solution over a period of time or after prolonged increased thermal exposure. The tests were performed on duplicate containers to verify DDP concentration remaining in solution.
Concentration of DDP in each formulation was determined by chromatographic separation. The tests were performed on a WATERS ALLIANCE HPLC system with a CADENZA C18 column using a mobile phase consisting of 85% acetonitrile and 15% 1-octanesulfonic acid/water at room temperature. Absorbance was monitored at 220 nm, the known absorption wavelength of DDP. Linear range of detection for DDP was from 1.0 to 100.0 ppm. Retention time of DDP using this system is 8.3 minutes.
In further reference to Table 2, “Glass Vial” is a 1.5 mL clear borosilicate glass vial sealed with a TEFLON® lined septa and aluminum crimp seal (AGILENT HPLC vials part number 5182-0543). “White PETE” is a 60 mL cylindrical bottle made from polyethylene terephthalate (PETE) resin containing a white colorant, titanium dioxide (ALCON part number X04715). “Natural sPP” is a 4 mL oval bottle made from syndiotactic polypropylene (sPP) resin without colorant, i.e., natural (ALCON part number 281277). “Natural TEFLON®” is a 30 mL cylindrical bottle made from fluorinated ethylene propylene (TEFLON® FEP) polymer without colorant by NALGENE® (VWR part number 16071-008).
The serotonergic formulation set forth in Table 3 was compounded in the same manner as the Table 1 formulation. The test, the method of testing, and the packaging were as for the Table 1 formulation.
The formulation set forth in Table 5 was compounded in the same manner as the Table 1 formulation. The test, the method of testing, and the packaging were as for the Table 1 formulation.
The formulation set forth in Table 7 was compounded in the same manner as the Table 1 formulation. The test, the method of testing, and the packaging were as for the Table 1 formulation, except as indicated. “White LDPE” is an 8 mL cylindrical bottle made from low-density polyethylene (LDPE) with white colorant and is ALCON part number 277027. “Natural Polystyrene” is a 150 mL cylindrical bottle made of polystyrene polymer without colorant and is CORNING filter flask product 431153.

[2] = cited from earlier work

DDP concentration in formulation ([1]; Table 1 formulation, Glass Vial 1.5 mL Fill, 1 day @ 40° C.): 9.5 ppm and 9.6 ppm | DDP concentration in formulation ([1]; Table 1 formulation, Glass Vial 1.5 mL Fill, 1 day @ 60° C.): 10 ppm and 9.6 ppm | DDP concentration in formulation ([1]; Table 1 formulation, Glass Vial 1.5 mL Fill, 1 day @ RT): 9.2 ppm and 9.3 ppm | DDP concentration in formulation ([1]; Table 1 formulation, Glass Vial 1.5 mL Fill, 2 days @ 40° C.): 9.3, 9.3 ppm | DDP concentration in formulation ([1]; Table 1 formulation, Glass Vial 1.5 mL Fill, 2 days @ 60° C.): 9.4 ppm and 9.1 ppm | DDP concentration in formulation ([1]; Table 1 formulation, Glass Vial 1.5 mL Fill, 5 days @ 40° C.): 8.8 ppm and 9.1 ppm | DDP concentration in formulation ([1]; Table 1 formulation, Glass Vial 1.5 mL Fill, 5 days @ 60° C.): 8.9 ppm and 8.6 ppm | DDP concentration in formulation ([1]; Table 1 formulation, Glass Vial 1.5 mL Fill, 6 days @ RT): 9.0, 9.0 ppm | DDP concentration in formulation ([1]; Table 1 formulation, Natural TEFLON 10 mL Fill, 2 days @ 60° C.): 8.4 ppm | DDP concentration in formulation ([1]; Table 1 formulation, Natural TEFLON 10 mL Fill, 5 days @ 60° C.): 7.8 ppm | DDP concentration in formulation ([1]; Table 1 formulation, Natural sPP 4 mL Fill, 1 day @ 40° C.): 3.3 ppm and 3.4 ppm | DDP concentration in formulation ([1]; Table 1 formulation, Natural sPP 4 mL Fill, 1 day @ 60° C.): 1.3, 1.3 ppm | DDP concentration in formulation ([1]; Table 1 formulation, Natural sPP 4 mL Fill, 1 day @ RT): 6.1 ppm and 6.6 ppm | DDP concentration in formulation ([1]; Table 1 formulation, Natural sPP 4 mL Fill, 2 days @ 40° C.): 1.6 ppm and 1.7 ppm | DDP concentration in formulation ([1]; Table 1 formulation, Natural sPP 4 mL Fill, 2 days @ 60° C.): 1.2 ppm and 1.3 ppm | DDP concentration in formulation ([1]; Table 1 formulation, Natural sPP 4 mL Fill, 6 days @ RT): 4.0 ppm and 3.9 ppm | DDP concentration in formulation ([1]; Table 1 formulation, Start, before filling into packaging): 11,11 ppm and 11, 11 ppm | DDP concentration in formulation ([1]; Table 1 formulation, White PETE 10 mL Fill, 1 day @ 40° C.): 9.6 ppm and 9.3 ppm | DDP concentration in formulation ([1]; Table 1 formulation, White PETE 10 mL Fill, 1 day @ 60° C.): 8.1 ppm and 8.3 ppm | DDP concentration in formulation ([1]; Table 1 formulation, White PETE 10 mL Fill, 1 day @ RT): 9.8 ppm and 10 ppm | DDP concentration in formulation ([1]; Table 1 formulation, White PETE 10 mL Fill, 2 days @ 40° C.): 8.9 ppm and 9.4 ppm | DDP concentration in formulation ([1]; Table 1 formulation, White PETE 10 mL Fill, 2 days @ 60° C.): 7.4 ppm and 7.5 ppm | DDP concentration in formulation ([1]; Table 1 formulation, White PETE 10 mL Fill, 5 days @ 40° C.): 8.8 ppm and 9.3 ppm | DDP concentration in formulation ([1]; Table 1 formulation, White PETE 10 mL Fill, 5 days @ 60° C.): 6.1 ppm and 6.4 ppm | DDP concentration in formulation ([1]; Table 1 formulation, White PETE 10 mL Fill, 6 days @ RT): 9.1 ppm and 9.0 ppm | DDP concentration after thermal exposure (in words) ([1]; Table 1 formulation, sPP container, Tests 1, 2, and 3): drops significantly | DDP concentration in formulation ([1]; Table 3 formulation, Glass Vial 1.5 mL Fill, 1 day @ 40° C.): 20, 20 ppm | DDP concentration in formulation ([1]; Table 3 formulation, Glass Vial 1.5 mL Fill, 1 day @ 60° C.): 20, 20 ppm | DDP concentration in formulation ([1]; Table 3 formulation, Glass Vial 1.5 mL Fill, 1 day @ RT): 20, 20 ppm | DDP concentration in formulation ([1]; Table 3 formulation, Glass Vial 1.5 mL Fill, 2 days @ 40° C.): 19 ppm and 21 ppm | DDP concentration in formulation ([1]; Table 3 formulation, Glass Vial 1.5 mL Fill, 2 days @ 60° C.): 20 ppm and 19 ppm | DDP concentration in formulation ([1]; Table 3 formulation, Glass Vial 1.5 mL Fill, 5 days @ 40° C.): 20, 20 ppm | DDP concentration in formulation ([1]; Table 3 formulation, Glass Vial 1.5 mL Fill, 5 days @ 60° C.): 19, 19 ppm | DDP concentration in formulation ([1]; Table 3 formulation, Glass Vial 1.5 mL Fill, 6 days @ RT): 20, 20 ppm | DDP concentration in formulation ([1]; Table 3 formulation, Natural TEFLON 10 mL Fill, 2 days @ 60° C.): 19 ppm | DDP concentration in formulation ([1]; Table 3 formulation, Natural TEFLON 10 mL Fill, 5 days @ 60° C.): 19 ppm | DDP concentration in formulation ([1]; Table 3 formulation, Natural sPP 4 mL Fill, 1 day @ 40° C.): 13, 13 ppm | DDP concentration in formulation ([1]; Table 3 formulation, Natural sPP 4 mL Fill, 1 day @ 60° C.): 7.0, 7.0 ppm | DDP concentration in formulation ([1]; Table 3 formulation, Natural sPP 4 mL Fill, 1 day @ RT): 18, 18 ppm | DDP concentration in formulation ([1]; Table 3 formulation, Natural sPP 4 mL Fill, 2 days @ 40° C.): 10, 10 ppm | DDP concentration in formulation ([1]; Table 3 formulation, Natural sPP 4 mL Fill, 2 days @ 60° C.): 3.4 ppm and 3.2 ppm | DDP concentration in formulation ([1]; Table 3 formulation, Natural sPP 4 mL Fill, 5 days @ 40° C.): 6.1 ppm and 6.2 ppm | DDP concentration in formulation ([1]; Table 3 formulation, Natural sPP 4 mL Fill, 6 days @ RT): 15, 15 ppm | DDP concentration in formulation ([1]; Table 3 formulation, Start, before filling into packaging): 20, 20 ppm | DDP concentration in formulation ([1]; Table 3 formulation, White PETE 10 mL Fill, 1 day @ 40° C.): 20, 20 ppm | DDP concentration in formulation ([1]; Table 3 formulation, White PETE 10 mL Fill, 1 day @ 60° C.): 19 ppm and 20 ppm | DDP concentration in formulation ([1]; Table 3 formulation, White PETE 10 mL Fill, 1 day @ RT): 21 ppm and 20 ppm | DDP concentration in formulation ([1]; Table 3 formulation, White PETE 10 mL Fill, 2 days @ 40° C.): 20 ppm and 19 ppm | DDP concentration in formulation ([1]; Table 3 formulation, White PETE 10 mL Fill, 2 days @ 60° C.): 18 ppm and 19 ppm | DDP concentration in formulation ([1]; Table 3 formulation, White PETE 10 mL Fill, 5 days @ 40° C.): 20, 20 ppm | DDP concentration in formulation ([1]; Table 3 formulation, White PETE 10 mL Fill, 5 days @ 60° C.): 17 ppm and 18 ppm | DDP concentration in formulation ([1]; Table 3 formulation, White PETE 10 mL Fill, 6 days @ RT): 19 ppm and 20 ppm | available DDP in the contained solution (in words) ([1]; Table 3 formulation, sPP packaging relative to Glass Vial, PETE, and TEFLON, Tests 4, 5, and 6): significant reduction | DDP concentration in formulation ([1]; Table 5 formulation, Glass Vial 1.5 mL Fill, 1 day @ 40° C.): 9.0 ppm and 8.9 ppm | DDP concentration in formulation ([1]; Table 5 formulation, Glass Vial 1.5 mL Fill, 1 day @ RT): 8.7 ppm and 8.6 ppm | DDP concentration in formulation ([1]; Table 5 formulation, Glass Vial 1.5 mL Fill, 2 days @ 40° C.): 8.6 ppm and 8.2 ppm | DDP concentration in formulation ([1]; Table 5 formulation, Glass Vial 1.5 mL Fill, 6 days @ RT): 8.4 ppm and 8.2 ppm | DDP concentration in formulation ([1]; Table 5 formulation, Natural sPP 4 mL Fill, 1 day @ 40° C.): 0.3, 0.3 ppm | DDP concentration in formulation ([1]; Table 5 formulation, Natural sPP 4 mL Fill, 1 day @ RT): 1.1, 1.1 ppm | DDP concentration in formulation ([1]; Table 5 formulation, Start, before filling into packaging): 8.0, 8.0 ppm | DDP concentration in formulation ([1]; Table 5 formulation, White PETE 10 mL Fill, 1 day @ 40° C.): 5.5 ppm and 5.0 ppm | DDP concentration in formulation ([1]; Table 5 formulation, White PETE 10 mL Fill, 1 day @ RT): 6.3 ppm and 6.4 ppm | DDP concentration in formulation ([1]; Table 5 formulation, White PETE 10 mL Fill, 2 days @ 40° C.): 4.6 ppm and 4.5 ppm | DDP concentration in formulation ([1]; Table 5 formulation, White PETE 10 mL Fill, 6 days @ RT): 6.5 ppm and 6.4 ppm | available DDP in the contained solution (in words) ([1]; Table 5 formulation, sPP packaging relative to Glass Vial and PETE, Tests 7, 8, and 9): significant reduction | loss of DDP from the formulation (in words) ([1]; Table 7 formulation, White LDPE container, Tests 10, 11, and 12): even more severe than the sPP container
Structure (SMILES): CCCCCCCCCCCCN1CCCC1=O [DDP, N-dodecyl-2-pyrrolidone]
retaining DDP in the formulation (in words) ([1]; Table 7 formulation, Natural Polystyrene container, Tests 10, 11, and 12): essentially equivalent to the PETE container | loss of DDP from the formulation (in words) ([1]; Table 7 formulation, sPP container, Tests 10, 11, and 12): much greater than that of the Glass Vial or PETE containers | solubility in water [2]: up to 0.002%

Structure (SMILES): CCCCCCCCN1CCCC1=O [N-octyl-2-pyrrolidone]
solubility in water [2]: up to 0.124%
